The text below walks through data of US12208077B2, “Synergistic composition for potentiating stabilized ATP” (CELAGENEX RESEARCH (INDIA) PVT. LTD., priority 2021, dated 2025).

A value given as a limit tells only on which side of the number the result lay.

One data set concerns HepG2 cells. As to the kind of experiment: Estimation of cellular ATP levels in HepG2 cells (BioVision kit). Particulars: 24 hr treatment, amount of each test substance as in the group name (Table 1/3). Format: cell-based, human. On the procedure:
In vitro evaluation of the modulatory potential of the test substances on cellular ATP levels in (HepG2) human Hepatocellular carcinoma cell line.
(§1) About 10 mg of all the test substances were dissolved separately with 1 ml DMEM-HG supplemented with 2% inactivated FBS to obtain a stock solution of 10 mg/ml concentration and sterilized by 0.22u syringe filtration. Diluted the stock to desired concentration for carrying out further studies.
(§2) Cell line HepG2 was procured from NCCS (National Center for Cell Sciences), Pune, and was cultured in DMEM-HG supplemented with 10% inactivated Fetal Bovine Serum (FBS), penicillin (100 IU/ml), streptomycin (100 μg/ml) and amphotericin B (5 μg/ml) in a humidified atmosphere of 5% CO2 at 37° C. until confluent. The cells were dissociated with TPVG solution (0.2% trypsin, 0.02% EDTA, 0.05% glucose in PBS). The stock cultures were grown in 25 cm^2 culture flasks and all experiments were carried out in 96 well microtitre plates (Tarsons India Pvt. Ltd., Kolkata, India).
HepG2 cells were trypsinized from stock culture flasks and the cell count was adjusted to 1.0×10^5cells/ml, the cell suspension was seeded into a 96-well plate. After 24 hr, cell cultures with 70-80% confluency, cells were treated with different non-toxic concentrations of test substances. After 24 hr of treatment, the plate was washed with phosphate buffer saline. The cellular ATP levels determination was performed according to the instruction given in the kit manual (BioVision, #K354-100). At the end of the experiment, the optical density was read at 570 nm using microplate reader. From the absorbance values, the cellular ATP levels were estimated using kit protocol and the concentration of cellular ATP levels in treated groups were determined in comparison to the control groups.

For data set [1] the following is noted: cited from earlier work.
The test system of a further data set is erythrocytes. Particulars: humans; after 24 h of continuous infusion; dose-dependent; cited from earlier work.
For data set [2] the following is noted: cited from earlier work. The source holds these as a separate data set.
Data set [3] in a line: In vitro cytotoxicity by MTT assay on HepG2 cell line. Particulars: human, HepG2 cells; for cytotoxicity at 24 h, 62.5 μg/mL: Test Conc. 62.5 μg/mL; for cytotoxicity at 24 h, 125 μg/mL: Test Conc. 125 μg/mL; for cytotoxicity at 24 h, 250 μg/mL: Test Conc. 250 μg/mL; for cytotoxicity at 24 h, 500 μg/mL: Test Conc. 500 μg/mL; for cytotoxicity at 24 h, 1000 μg/mL: Test Conc. 1000 μg/mL; for cytotoxicity at 24 h, 2000 μg/mL: Test Conc. 2000 μg/mL; for cytotoxicity at 24 h, 3000 μg/mL: Test Conc. 3000 μg/mL; for cytotoxicity at 24 h, 4000 μg/mL: Test Conc. 4000 μg/mL; for cytotoxicity at 24 h, 5000 μg/mL: Test Conc. 5000 μg/mL. Format: cell-based, human. On the procedure:
(§3) The in vitro cytotoxicity was performed on HepG2 (Human Hepatocellular Carcinoma) cell line to find the non-toxic concentrations of the test substances by MTT assay and evaluate their modulatory potential on cellular ATP levels
as §1, §2
(§4) The monolayer cell culture was trypsinized and the cell count was adjusted to 1.0×10^5cells/ml using DMEM-HG containing 10% FBS. To each well of the 96 well microtitre plate, 0.1 ml of the diluted cell suspension was added. After 24 h, when a partial monolayer was formed, the supernatant was flicked off, the monolayer was washed once with medium and 100 μl of different concentrations of test substances were added. The plate was then incubated at 37° C. for 24 h in a 5% CO2 atmosphere, and microscopic examination was carried out and observations were noted after 24 h time.
(§5) After 24 h of incubation, the drug solutions in the wells were discarded and 50 μl of MTT in DPBS was added to each well. The plate was gently shaken and incubated for 3 h at 37° C. in a 5% CO2 atmosphere. The supernatant was removed and 100 μl of 2-propanol was added and the plate was gently shaken to solubilize the formed formazan. The absorbance was measured using a microplate reader at a wavelength of 570 nm. The percentage growth inhibition was calculated using the standard formula. The concentration of test substances, needed to inhibit the growth of the cell by 50% i.e., CTC50 values were generated from the dose-response curves

The test system of another data set is HepG2 cell line. The description is as above. Format: cell-based, human. Particulars: Homo sapiens, concentration needed to inhibit growth of the cell by 50%, 24 h, read-out: CTC50. How it is done:
as §3, §1, §2, §4, §5

For a further data set, the system named is MS-related fatigue. The settings on record: treatment of MS-related fatigue; cited from earlier work.
Data set [4] has as its system Patients with hepatic encephalopathy (HE). Particulars: patients with hepatic encephalopathy treated with ALCAR; cited from earlier work.

In the case of `OO` [Composition H2O2, H2O2, reference compound], in the data set with HepG2 cells, the “Cellular ATP” value is recorded as 22.35 ± 0.48 nM and the “Percentage enhancement of cellular ATP levels over cell control” value (shortened to “Percentage enhancement”) is −38.40%.
Consider `Nc1ncnc2c1ncn2[C@@H]1O[C@H](COP(=O)(O)OP(=O)(O)OP(=O)(O)O)[C@@H](O)[C@H]1O` [ATP, Adenosine triphosphate], for which the “half-life of infused ATP” value in data set [1] is recorded as “less than one”. The “increase of ATP concentrations in erythrocytes” value in the data set on erythrocytes was ~60%. Also, the “stability in acidic conditions” value in data set [2] is on record as “quickly decompose”. Besides, in the data set on HepG2 cells, the “Cellular ATP” value was 119.88 ± 0.45 nM and the “Percentage enhancement” value was 230.33%.
In data set [3], `CC(=O)O[C@H](CC(=O)O)C[N+](C)(C)C` [N-Acetyl L carnitine, (3R)-3-acetyloxy-4-(trimethylazaniumyl) butanoate] gave a cytotoxicity at 24 h, 62.5 μg/mL of 0.982 ± 0.876%; a cytotoxicity at 24 h, 125 μg/mL of 0.546 ± 0.408%; a cytotoxicity at 24 h, 250 μg/mL of 1.31 ± 0.134%; a cytotoxicity at 24 h, 500 μg/mL of 1.69 ± 0.204%. In data set [3], this compound displayed a cytotoxicity at 24 h, 1000 μg/mL of 2.46 ± 1.58%; a cytotoxicity at 24 h, 2000 μg/mL of 2.62 ± 0.964%; a cytotoxicity at 24 h, 3000 μg/mL of 3 ± 0.736%; a cytotoxicity at 24 h, 4000 μg/mL of 5.18 ± 2.68%. This compound also had a cytotoxicity at 24 h, 5000 μg/mL in data set [3] of 32.6 ± 2.55%. In addition, in the data set with HepG2 cell line, the IC50 was > 5000 µg/mL. Moreover, in the data set on HepG2 cells, the “Cellular ATP” value is reported as 39.92 ± 0.45 nM and the “Percentage enhancement” value is on record as 10.00%. Besides, the “efficacy compared with amantadine” value with MS-related fatigue is listed as “more effective”. For the same compound, in data set [4], the physical activity result was “increase”; the “severity of mental and physical fatigue” value was “decrease”.
Consider `CC(=O)NCCS(=O)(=O)O` [Magnesium Acetyl Taurate, magnesium; 2-acetamidoethanesulfonate; dihydrate], for which, in data set [3], the cytotoxicity at 24 h, 62.5 μg/mL amounted to 1.31 ± 0.231%; the cytotoxicity at 24 h, 125 μg/mL came to 1.25 ± 0.91%; the cytotoxicity at 24 h, 250 μg/mL amounted to 1.75 ± 0.43%; the cytotoxicity at 24 h, 500 μg/mL was 1.53 ± 0.408%. Besides, in data set [3], the cytotoxicity at 24 h, 1000 μg/mL was found to be 1.36 ± 0.967%; the cytotoxicity at 24 h, 2000 μg/mL was 6.55 ± 0.482%; the cytotoxicity at 24 h, 3000 μg/mL worked out at 3.71 ± 1.34%; the cytotoxicity at 24 h, 4000 μg/mL worked out at 6.17 ± 2.39%. This compound also displayed a cytotoxicity at 24 h, 5000 μg/mL in data set [3] of 12.2 ± 1.56%. Further, the IC50 in the data set with HepG2 cell line is > 5000 µg/mL. For the same compound, in the data set on HepG2 cells, the “Cellular ATP” value is given as 56.28 ± 0.56 nM and the “Percentage enhancement” value is recorded as 55.07%.
